Results as given in PubChem BioAssay AID256 (DTP/NCI, 2004).
“And” between values parts separate entries of the source, which are not always exact repeats. Equal entries are not always repeated. Toxic doses and inconclusive results are not listed. Rule for the calls: active = survival T/C of 150% or more; inactive = T/C below 125% in these data.

Tested on: CD2F1 mice, L1210 leukemia ip, survival T/C
Assay: NCI In Vivo Anticancer Drug Screen. Data for tumor model L1210 Leukemia (intraperitoneal) in CD2F1 (CDF1) mice
Conditions: higher = longer survival
Procedure, shortened: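 Compound-dosed mice with transplantable tumor versus matched vehicle controls; endpoint ratio T/C reported.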

[1] = endpoint: mean survival time, dose: 100.0 mg/kg/injection, schedule: Q04DX003 (ip), vehicle: saline
[2] = endpoint: mean survival time, dose: 200.0 mg/kg/injection, schedule: Q04DX003 (ip), vehicle: saline
[3] = endpoint: mean survival time, dose: 400.0 mg/kg/injection, schedule: Q04DX003 (ip), vehicle: saline
[4] = endpoint: mean survival time, dose: 200.0 mg/kg/injection, schedule: Q04DX002 (ip), vehicle: saline with Tween-80
[5] = endpoint: mean survival time, dose: 400.0 mg/kg/injection, schedule: Q04DX002 (ip), vehicle: saline with Tween-80
[6] = endpoint: mean survival time, dose: 100.0 mg/kg/injection, schedule: Q01DX001 (ip), vehicle: saline with Tween-80
[7] = endpoint: mean survival time, dose: 200.0 mg/kg/injection, schedule: Q01DX001 (ip), vehicle: saline with Tween-80
[8] = endpoint: mean survival time, dose: 400.0 mg/kg/injection, schedule: Q01DX001 (ip), vehicle: saline with Tween-80
[9] = endpoint: mean survival time, dose: 50.0 mg/kg/injection, schedule: Q01DX009 (ip), vehicle: saline with Tween-80
[10] = endpoint: mean survival time, dose: 25.0 mg/kg/injection, schedule: Q01DX009 (ip), vehicle: water
[11] = endpoint: mean survival time, dose: 50.0 mg/kg/injection, schedule: Q01DX009 (ip), vehicle: water
[12] = endpoint: mean survival time, dose: 100.0 mg/kg/injection, schedule: Q01DX009 (ip), vehicle: water
[13] = endpoint: mean survival time, dose: 200.0 mg/kg/injection, schedule: Q01DX009 (ip), vehicle: water
[14] = endpoint: mean survival time, dose: 0.39 mg/kg/injection, schedule: Q01DX009 (ip), vehicle: saline with Tween-80
[15] = endpoint: mean survival time, dose: 25.0 mg/kg/injection, schedule: Q01DX009 (ip), vehicle: saline
[16] = endpoint: mean survival time, dose: 100.0 mg/kg/injection, schedule: Q01DX009 (ip), vehicle: saline with Tween-80
[17] = endpoint: mean survival time, dose: 100.0 mg/kg/injection, schedule: Q04DX003 (ip), vehicle: saline with Tween-80
[18] = endpoint: mean survival time, dose: 200.0 mg/kg/injection, schedule: Q01DX009 (ip), vehicle: saline with Tween-80
[19] = endpoint: mean survival time, dose: 200.0 mg/kg/injection, schedule: Q04DX003 (ip), vehicle: saline with Tween-80
[20] = endpoint: mean survival time, dose: 400.0 mg/kg/injection, schedule: Q01DX009 (ip), vehicle: saline with Tween-80
[21] = endpoint: mean survival time, dose: 400.0 mg/kg/injection, schedule: Q04DX003 (ip), vehicle: saline with Tween-80

Measured: T/C

CC(C)CC(NC(=O)C(O)C(N)Cc1ccccc1)C(=O)O (centres undefined)
inactive: endpoint: mean survival time, dose: 10.0 micrograms/kg/injection, schedule: Q01DX005 (oral), vehicle: saline 96 % of control | endpoint: mean survival time, dose: 100.0 micrograms/kg/injection, schedule: Q01DX005 (oral), vehicle: saline 100 % of control | endpoint: median survival time, dose: 10.0 micrograms/mouse/injection, schedule: Q01DX010 (oral), vehicle: saline 97 % of control | endpoint: median survival time, dose: 100.0 micrograms/mouse/injection, schedule: Q01DX010 (oral), vehicle: saline 95 % of control

OCC(F)(F)C(F)(F)C(F)(F)CO
inactive: [1] 101 % of control | [2] 107 % of control | [3] 104 % of control

COC(=O)c1cccn1C(=O)c1ccccc1N
inactive: endpoint: mean survival time, dose: 100.0 mg/kg/injection, schedule: Q04DX002 (ip), vehicle: saline with Tween-80 96 % of control | [4] 93 % of control | [5] 100 % of control

COc1cc(C(=O)O)cc(OC)c1OC
inactive: [6] 97 % of control | [7] 97 % of control | [8] 97 % of control

CC/C=N/Nc1ccc([N+](=O)[O-])cc1[N+](=O)[O-]
inactive: endpoint: mean survival time, dose: 12.5 mg/kg/injection, schedule: Q01DX009 (ip), vehicle: saline with Tween-80 91 % of control | endpoint: mean survival time, dose: 25.0 mg/kg/injection, schedule: Q01DX009 (ip), vehicle: saline with Tween-80 92 % of control | [9] 93 % of control

CNCC(O)c1ccc(O)c(O)c1.[Pt].c1ccc([PH+](c2ccccc2)c2ccccc2)cc1.c1ccc([PH+](c2ccccc2)c2ccccc2)cc1
inactive: endpoint: median survival time, dose: 10.0 mg/kg/injection, schedule: Q04DX003 (ip), vehicle: saline with Tween-80 94 % of control | endpoint: median survival time, dose: 20.0 mg/kg/injection, schedule: Q04DX003 (ip), vehicle: saline with Tween-80 108 % of control | endpoint: median survival time, dose: 40.0 mg/kg/injection, schedule: Q04DX003 (ip), vehicle: saline with Tween-80 109 % of control | endpoint: median survival time, dose: 50.0 mg/kg/injection, schedule: Q04DX003 (ip), vehicle: saline with Tween-80 102 % of control | endpoint: median survival time, dose: 80.0 mg/kg/injection, schedule: Q04DX003 (ip), vehicle: saline with Tween-80 105 % of control | endpoint: median survival time, dose: 100.0 mg/kg/injection, schedule: Q04DX003 (ip), vehicle: saline with Tween-80 101 % of control

CC1(C)CC(O)(C(Cl)c2ccccc2)C(=O)c2ccccc21 (centres undefined)
inactive: [10] 103 % of control | [11] 104 % of control | [12] 98 % of control | endpoint: mean survival time, dose: 100.0 mg/kg/injection, schedule: Q04DX003 (ip), vehicle: acetone 98 % of control | [13] 109 % of control | endpoint: mean survival time, dose: 200.0 mg/kg/injection, schedule: Q04DX003 (ip), vehicle: acetone 95 % of control | endpoint: mean survival time, dose: 400.0 mg/kg/injection, schedule: Q01DX009 (ip), vehicle: water 107 % of control | endpoint: mean survival time, dose: 400.0 mg/kg/injection, schedule: Q04DX003 (ip), vehicle: acetone 95 % of control

CCCC[S+](CCCC)CC(=O)c1ccc(-c2ccccc2)cc1
inactive: endpoint: mean survival time, dose: 0.19 mg/kg/injection, schedule: Q01DX009 (ip), vehicle: saline with Tween-80 97 % of control | [14] 101 % of control | endpoint: mean survival time, dose: 0.76 mg/kg/injection, schedule: Q01DX009 (ip), vehicle: saline with Tween-80 98 % of control | endpoint: mean survival time, dose: 1.56 mg/kg/injection, schedule: Q01DX009 (ip), vehicle: saline with Tween-80 97 % of control | endpoint: mean survival time, dose: 1.56 mg/kg/injection, schedule: Q01DX009 (ip), vehicle: saline 86 % of control | endpoint: mean survival time, dose: 3.12 mg/kg/injection, schedule: Q01DX009 (ip), vehicle: saline with Tween-80 98 % of control | endpoint: mean survival time, dose: 3.13 mg/kg/injection, schedule: Q01DX009 (ip), vehicle: saline 87 % of control | endpoint: mean survival time, dose: 12.5 mg/kg/injection, schedule: Q01DX009 (ip), vehicle: saline 87 % of control | [15] 87 % of control

CC(=O)Nc1cccc(Cl)c1
inactive: [6] 92 % of control | [16] 106 % of control | [17] 98 % of control and 103 % of control | [7] 100 % of control | [18] 96 % of control | [19] 98 % of control and 116 % of control | [8] 94 % of control | [20] 91 % of control | [21] 94 % of control and 109 % of control

Cc1ccc2c(c1)Sc1ccc3ccccc3c1N2
inactive: [16] 95 % of control | endpoint: mean survival time, dose: 100.0 mg/kg/injection, schedule: Q04DX003 (ip), vehicle: Klucel (hydroxypropylcellulose) (HPC) 96 % of control | [18] 97 % of control | endpoint: mean survival time, dose: 200.0 mg/kg/injection, schedule: Q04DX003 (ip), vehicle: Klucel (hydroxypropylcellulose) (HPC) 95 % of control | [20] 97 % of control | endpoint: mean survival time, dose: 400.0 mg/kg/injection, schedule: Q04DX003 (ip), vehicle: Klucel (hydroxypropylcellulose) (HPC) 98 % of control

c1ccc2nc3ccccc3cc2c1
inactive: [16] 101 % of control | [18] 103 % of control

N=C(N)c1ccc(OCCOc2cccc(N)c2)cc1
inactive: [15] 100 % of control | endpoint: mean survival time, dose: 50.0 mg/kg/injection, schedule: Q01DX009 (ip), vehicle: saline 95 % of control | [16] 93 % of control | endpoint: mean survival time, dose: 100.0 mg/kg/injection, schedule: Q01DX009 (ip), vehicle: saline 97 % of control

Nc1nc(NC2OC(CO)C(O)C2O)c2nnsc2n1 (centres undefined)
inactive: endpoint: mean survival time, dose: 75.0 mg/kg/injection, schedule: Q01DX001 (ip), vehicle: saline 96 % of control | endpoint: mean survival time, dose: 150.0 mg/kg/injection, schedule: Q01DX001 (ip), vehicle: saline 100 % of control | endpoint: mean survival time, dose: 300.0 mg/kg/injection, schedule: Q01DX001 (ip), vehicle: saline 88 % of control

c1cc[c]([Ge]([c]2ccccc2)([c]2ccccc2)[c]2ccccc2)cc1
inactive: [1] 86 % of control | [2] 86 % of control | [3] 91 % of control

CC(C)NC(C)C
inactive: [4] 98 % of control | [5] 98 % of control

CCOc1ccc(Br)cc1/C=C(\C#N)c1ccc([N+](=O)[O-])cc1
inactive: endpoint: mean survival time, dose: 0.1 mg/kg/injection, schedule: Q01DX009 (ip), vehicle: saline with Tween-80 98 % of control | endpoint: mean survival time, dose: 0.2 mg/kg/injection, schedule: Q01DX009 (ip), vehicle: saline with Tween-80 97 % of control | [14] 93 % of control | endpoint: mean survival time, dose: 0.4 mg/kg/injection, schedule: Q01DX009 (ip), vehicle: saline with Tween-80 90 % of control | endpoint: mean survival time, dose: 12.5 mg/kg/injection, schedule: Q04DX003 (ip), vehicle: saline with Tween-80 87 % of control | endpoint: mean survival time, dose: 25.0 mg/kg/injection, schedule: Q04DX003 (ip), vehicle: saline with Tween-80 89 % of control | endpoint: mean survival time, dose: 50.0 mg/kg/injection, schedule: Q04DX003 (ip), vehicle: saline with Tween-80 86 % of control

CN(Cc1cnc2nc(N)nc(N)c2n1)c1ccc(C(=O)NC(CCC(=O)NC(CC(=O)O)C(=O)O)C(=O)O)cc1 (centres undefined)
active: endpoint: mean survival time, dose: 5.0 mg/kg/injection, schedule: Q01DX009 (ip), vehicle: sodium bicarbonate 165 % of control | endpoint: mean survival time, dose: 10.0 mg/kg/injection, schedule: Q01DX009 (ip), vehicle: sodium bicarbonate 151 % of control

COC(=O)N(C)c1cccc(OC(=O)N(C)C)c1
inactive: [17] 92 % of control | [19] 99 % of control | [21] 99 % of control

CCCCc1ccc(N=C(N)N=C(N)N)cc1
inactive: endpoint: mean survival time, dose: 9.5 mg/kg/injection, schedule: Q01DX001 (ip), vehicle: other 103 % of control | endpoint: mean survival time, dose: 19.0 mg/kg/injection, schedule: Q01DX001 (ip), vehicle: other 94 % of control | endpoint: mean survival time, dose: 38.0 mg/kg/injection, schedule: Q01DX001 (ip), vehicle: other 91 % of control

c1ccc(N=C2SCCS2)cc1
inactive: endpoint: mean survival time, dose: 3.13 mg/kg/injection, schedule: Q01DX001 (ip), vehicle: Klucel (hydroxypropylcellulose) (HPC) 93 % of control | endpoint: mean survival time, dose: 6.25 mg/kg/injection, schedule: Q01DX001 (ip), vehicle: Klucel (hydroxypropylcellulose) (HPC) 97 % of control | endpoint: mean survival time, dose: 12.5 mg/kg/injection, schedule: Q01DX001 (ip), vehicle: Klucel (hydroxypropylcellulose) (HPC) 108 % of control

CCOC(=O)CC(Cc1cc(OC)ccc1OC)(C(C)=O)C(C)=O
inactive: endpoint: mean survival time, dose: 12.5 mg/kg/injection, schedule: Q01DX009 (ip), vehicle: water 100 % of control | [10] 110 % of control | [11] 102 % of control | [12] 95 % of control | [13] 114 % of control

COC(=O)c1ccccc1N=NNc1cccc(SC)c1
inactive: [9] 95 % of control | [16] 103 % of control | [18] 97 % of control
